Measured values: US5446049A, “Azanoradamantanes for treatment of conditions responsive to 5-HT agonists and/or antagonists” (priority 1994, dated 1995)
pEC50, pKi: −log10 of the molar value. Blank lines part the entries; values can stand above or below the compound they belong to.

Columns and labels:
5-HT3 receptor = biological target: T1, 5-HT3 receptor (Rattus norvegicus, UniProt P35563); assay: 5-HT3 radioligand receptor binding assay ([3H]-GR65630, rat brain cortex membranes)
T1 construct: Brain cortices were obtained from male rats and a membrane fraction prepared by standard techniques; from tissue; host or cells: rat brain cortex membranes
T1 sequence (P35563 24-483): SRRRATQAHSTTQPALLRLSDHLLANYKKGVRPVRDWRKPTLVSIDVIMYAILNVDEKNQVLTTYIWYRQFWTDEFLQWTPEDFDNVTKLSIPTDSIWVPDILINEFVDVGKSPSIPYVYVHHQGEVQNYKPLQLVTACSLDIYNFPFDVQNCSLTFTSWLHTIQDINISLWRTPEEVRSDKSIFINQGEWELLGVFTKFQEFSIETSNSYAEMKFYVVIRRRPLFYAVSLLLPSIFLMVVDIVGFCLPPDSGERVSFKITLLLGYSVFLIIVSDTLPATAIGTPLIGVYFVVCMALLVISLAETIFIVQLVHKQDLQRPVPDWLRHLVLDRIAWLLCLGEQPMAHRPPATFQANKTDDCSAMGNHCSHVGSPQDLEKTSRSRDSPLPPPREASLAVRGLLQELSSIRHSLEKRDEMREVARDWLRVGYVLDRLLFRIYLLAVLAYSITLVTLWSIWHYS
Method: (§1) (Baxter et al., Naunyn Schmied Arch. Pharmacol, 1991, 343, 439). […] One with skill in the art could determine the activity of the compounds of the present invention using the methodology of these assays, described herein, without undue experimentation.
Procedure: GR65630 binds to the 5-HT3 receptor. Brain cortices were obtained from male rats and a membrane fraction prepared by standard techniques. 0.04 mg of membrane prep was incubated with 0.2 nM [^3 H]-GR65630 for 66 minutes at 22° C. […] Membranes were filtered and washed 3 times and the filters were counted to determine [^3 H]-GR65630 specifically bound. (Kilpatrick G. J., Jones B. J. and Tyers M. B., Identification and Distribution of 5-HT3 Receptors in Rat Brain Using Radioligand Binding Assay, Nature, 330, 746-748 (1987)).

5-HT4 receptors = conditions: Craig and Clarke; cited from earlier work
GI tract = conditions: various animal models; cited from earlier work
5-HT4 receptor [1] = conditions: Dumuis et al 1989; mouse embryonic colliculi neurons; cited from earlier work
myenteric neurons = conditions: Nemeth and Gullikson; cited from earlier work
5-HT4 receptor [2] = biological target: T2, 5-HT4 receptor (Rattus norvegicus, UniProt Q62758); assay type: cell-based; conditions: Table I; tissues from 5 rats; carbachol 3 μM; read-out: 5-HT4 Agonism (Rat TMM) In Vitro Assay: EC50 values
T2 construct: The inner tunica muscularis mucosa was mounted under 0.2-0.3 g of tension in a tissue bath; from tissue; host or cells: rat intrathoracic oesophagus, tunica muscularis mucosae
Text: as §1
One 2 cm segment of intrathoracic esophagus proximal to the diaphragm was removed from male rats, weighing approximately 300 gm, and the outer muscle layers removed. The inner tunica muscularis mucosa was mounted under 0.2-0.3 g of tension in a tissue bath containing oxygenated Tyrode's solution at 37° C. […] Following a 30 min equilibrium period, tissues were isometrically contracted with carbachol (3 μM) to obtain a tonic contraction. A stable plateau was obtained within 20 min when test compound was added cumulatively to relax the muscle strip. EC50 values were obtained for each agonist in tissues from 5 rats.

gastric emptying = conditions: cited from earlier work; for gastric emptying: Gidda et al 1988; for gastric emptying rates in vivo: Buchheit et al 1985
charcoal meal transit = conditions: Kimura et al 1989; cited from earlier work
[3] = system: guinea pig stomach strips; conditions: cited from earlier work; for guinea pig stomach muscle strip contraction in vitro: Buchheit et al 1985
[4] = system: 5-HT3-mediated Bezold Jarisch reflex; conditions: in vivo; cited from earlier work
GI transit = conditions: cited from earlier work
antroduodenal motility = conditions: Van Nueten et al 1989, cited from earlier work

T2 sequence (Q62758 whole entry): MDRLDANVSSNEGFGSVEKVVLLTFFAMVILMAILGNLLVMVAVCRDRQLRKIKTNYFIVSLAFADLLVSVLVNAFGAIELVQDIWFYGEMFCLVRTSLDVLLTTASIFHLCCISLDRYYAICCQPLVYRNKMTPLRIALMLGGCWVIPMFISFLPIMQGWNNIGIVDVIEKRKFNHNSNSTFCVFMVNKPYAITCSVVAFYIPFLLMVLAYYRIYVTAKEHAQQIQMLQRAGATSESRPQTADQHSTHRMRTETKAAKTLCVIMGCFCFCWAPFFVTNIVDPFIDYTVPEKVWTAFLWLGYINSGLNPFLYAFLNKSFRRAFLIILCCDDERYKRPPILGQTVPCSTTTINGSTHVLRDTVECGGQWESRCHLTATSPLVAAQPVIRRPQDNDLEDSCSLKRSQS

SMILES: Cc1nc[nH]c1CCC(=O)c1cn(C)c2ccccc12 [[^3 H]-GR65630]
% Specific Binding (5-HT3 receptor; radioligand, non-specific binding with 1 uM ICS 205-930): 70%
Bmax (5-HT3 receptor; radioligand, rat brain cortex membranes): 154 fmol/mg protein

SMILES: NCCc1c[nH]c2ccc(O)cc12 [Serotonin, 5-hydroxytryptamine]
peristaltic reflex evoked, mediated through agonism at 5-HT4 receptors (5-HT4 receptors): mediated through agonism at 5-HT4 receptors
peristalsis in the GI tract (GI tract): promote peristalsis in the GI tract

SMILES: COc1cc(N)c(Cl)cc1C(=O)NC1CCN2CCCC1C2 (stereo not shown) [BRL-24924]
peristaltic reflex evoked, mediated through agonism at 5-HT4 receptors (5-HT4 receptors): mediated through agonism at 5-HT4 receptors
agonist activity at 5-HT4 receptor (5-HT4 receptor [1]): agonist activity
ability to depolarize myenteric neurons versus 5-HT3 antagonism (myenteric neurons): unrelated to their properties of 5-HT3 antagonism

pEC50 (5-HT4 receptor [2]): 6.56
SMILES: COc1cc(N)c(Cl)cc1C(=O)NC[C@H]1[C@@H]2C[C@@H]3C[C@H]1N(C3)C2 [Example 4, 4-amino-5-chloro-N-(hexahydro-2β,6β-methano-1H,7aα-pyrrolizin-1R,1α-ylmethyl)-2-methoxybenzamide]

SMILES: COc1cc(N)c(Cl)cc1C(=O)NC1CN2CCC1CC2 (stereo not shown) [zacopride]
gastric emptying (gastric emptying): enhanced gastric emptying

SMILES: Cc1nccn1CC1CCc2c(c3ccccc3n2C)C1=O.Cl.O.O (stereo not shown) [SN-307]
transit of a charcoal meal in mice (charcoal meal transit): enhanced transit of a charcoal meal in mice

SMILES: COc1cc(N)c(Cl)cc1C(=O)NC[C@@H]1[C@H]2C[C@H]3C[C@@H]1N(C3)C2 (relative stereo) [Example 1, 4-amino-5-chloro-N-(hexahydro-2β,6β-methano-1H,7aα-pyrrolizin-1β-ylmethyl)-2-methoxybenzamide]
pKi (5-HT3 receptor; read-out: Ki, effect of compounds on [3H]-GR65630 bound, Table II, 0.2 nM [3H]-GR65630, 66 minutes, 22° C.): 8.26
pEC50 (5-HT4 receptor [2]): 6.76

SMILES: CN1[C@@H]2CC[C@H]1C[C@@H](OC(=O)c1cc(Cl)cc(Cl)c1)C2 [MDL 72222]
gastric emptying rates in vivo (gastric emptying): increases in gastric emptying rates in vivo
guinea pig stomach muscle strip contraction in vitro [3]: enhanced guinea pig stomach muscle strip contraction in vitro

SMILES: CCN(CC)CCNC(=O)c1cc(Cl)c(N)cc1OC [metoclopramide]
gastric emptying rates in vivo (gastric emptying): increases in gastric emptying rates in vivo
guinea pig stomach muscle strip contraction in vitro [3]: enhanced guinea pig stomach muscle strip contraction in vitro
electrical-field stimulated contractions in guinea pig stomach strips ([3]; Gunning and Naylor 1985): enhanced electrical-field stimulated contractions in guinea pig stomach strips
block of the 5-HT3-mediated Bezold Jarisch reflex [4]: blocks the 5-HT3-mediated Bezold Jarisch reflex

SMILES: COc1cc(N)c(Cl)cc1C(=O)NC[C@@H]1[C@H]2C[C@H]3C[C@@H]1N(C3)C2 [Example 3, 4-amino-5-chloro-N-(hexahydro-2β,6β-methano-1H,7aα-pyrrolizin-1S,1α-ylmethyl)-2-methoxybenzamide]
pEC50 (5-HT4 receptor [2]): 6.85

pEC50 (5-HT4 receptor [2]): 6.38
SMILES: COc1cc(N)c(Cl)cc1C(=O)NC[C@@H]1[C@@H]2C[C@@H]3C[C@H]1N(C3)C2 (relative stereo) [Example 2, 4-amino-5-chloro-N-(hexahydro-2β,6β-methano-1H,7aα-pyrrolizin-1β-ylmethyl)-2-methoxybenzamide]

SMILES: Cc1nccn1CC1CCc2c(c3ccccc3n2C)C1=O (stereo not shown) [GR38032]
gastric emptying (gastric emptying): enhanced gastric emptying
GI transit in man (GI transit; Gore et al 1990): failed to accelerate GI transit
colonic transit in man (GI transit; Gore et al 1990): slowed colonic transit in man
small intestinal transit times or mouth-to-cecum transit times (GI transit; Talley et al 1989, man): did not alter small intestinal transit times or mout-to-cecum transit times

SMILES: COc1cc(N)c(Cl)cc1C(=O)NC1CCN(CCCOc2ccc(F)cc2)CC1OC (stereo not shown) [Cisapride]
antroduodenal motility in dogs (antroduodenal motility): enhanced antroduodenal motility in dogs
agonist activity at 5-HT4 receptor (5-HT4 receptor [1]): agonist activity
ability to depolarize myenteric neurons versus 5-HT3 antagonism (myenteric neurons): unrelated to their properties of 5-HT3 antagonism

SMILES: CN1[C@@H]2CC[C@H]1C[C@@H](OC(=O)c1c[nH]c3ccccc13)C2 [ICS 205-930]
gastric emptying rates in vivo (gastric emptying): increases in gastric emptying rates in vivo
gastric emptying (gastric emptying): enhanced gastric emptying
guinea pig stomach muscle strip contraction in vitro [3]: enhanced guinea pig stomach muscle strip contraction in vitro
effect on the responses to cisapride when coadministered (antroduodenal motility; dogs): did not affect the responses to cisapride
